Assay results taken from patent publication US9457033B2, “Steroid alkaloids and uses thereof as antimicrobial agents against electron transport-deficient microbes and as potentiators for antimicrobial agents against pathogenic bacteria” (priority 2011, dated 2016).
Values after ≈ are worked out from the molar mass of the structure shown.

Assays:
S. aureus ATCC 29213 [1] = assay: MIC, microdilution in BHI 48 h (Examples 1, 3); format: cell-based, Staphylococcus aureus
[2] = tested on: S. aureus Newbould (normal strain); assay: MIC, microdilution in BHI 48 h; format: cell-based, Staphylococcus aureus; conditions: Newbould, normal strain
[3] = tested on: S. aureus SCV NewbouldΔhemB; assay: MIC, microdilution in BHI 48 h; format: cell-based, Staphylococcus aureus; conditions: NewbouldΔhemB, SCV
[4] = tested on: S. aureus CF07-L (normal strain); assay: MIC, microdilution in BHI 48 h (Examples 1, 3); format: cell-based, Staphylococcus aureus
[5] = tested on: S. aureus CF1A-L (normal strain); assay: MIC, microdilution in BHI 48 h; format: cell-based, Staphylococcus aureus; conditions: CF1A-L, normal strain
S. aureus ATCC 29213 [6] = assay: MIC, microdilution in CAMHB 24 h, with or without tomatidine/compound; format: cell-based, Staphylococcus aureus; conditions: ATCC 29213; for MIC: Human (SSTI); for MIC −TO: absence of tomatidine; for MIC +TO: presence of tomatidine at 8 μg/ml; for Fold (−TO/+TO): tomatidine at 8 μg/ml
S. aureus 8325-4 = assay: MIC, microdilution in CAMHB 24 h; format: cell-based, Staphylococcus aureus; conditions: 8325-4; Laboratory strain
S. aureus Newbould = assay: MIC, microdilution in CAMHB 24 h; format: cell-based, Staphylococcus aureus; conditions: Newbould; Cow (mastitis)
S. aureus SHY97-3906 = assay: MIC, microdilution in CAMHB 24 h; format: cell-based, Staphylococcus aureus; conditions: SHY97-3906; Cow (mastitis)
S. aureus ATCC 43300 = assay: MIC, microdilution in CAMHB 24 h; format: cell-based, Staphylococcus aureus; conditions: ATCC 43300; Human (HA); MRSA
S. aureus ATCC BAA-41 = assay: MIC, microdilution in CAMHB 24 h; format: cell-based, Staphylococcus aureus; conditions: ATCC BAA-41; Human (HA); MRSA
S. aureus N315 = assay: microbe, parasite or virus in culture; format: cell-based, Staphylococcus aureus; conditions: N315; Human (HA); MRSA
S. aureus MA078038 = assay: MIC, microdilution in CAMHB 24 h; format: cell-based, Staphylococcus aureus; conditions: MA078038; Human (CA); MRSA
S. aureus Newman = assay: MIC, microdilution in CAMHB 24 h; format: cell-based, Staphylococcus aureus; conditions: Newman; Human (Osteo)
S. aureus MRSA COL = assay: MIC, microdilution in CAMHB 24 h; format: cell-based, Staphylococcus aureus; conditions: MRSA COL; Human (SSTI)
S. aureus Mu50 = assay: MIC, microdilution in CAMHB 24 h; format: cell-based, Staphylococcus aureus; conditions: Mu50; Human (SSTI); MRSA, VISA
S. aureus Sa220c = assay: MIC, microdilution in CAMHB 24 h; format: cell-based, Staphylococcus aureus; conditions: Sa220c; Human (SSTI); MRSA
S. aureus Sa228c = assay: MIC, microdilution in CAMHB 24 h; format: cell-based, Staphylococcus aureus; conditions: Sa228c; Human (SSTI); MRSA
S. aureus CF1A-L = assay: MIC, microdilution in CAMHB 24 h; format: cell-based, Staphylococcus aureus; conditions: CF1A-L; Human (CF lungs)
S. aureus CF2A-L = assay: MIC, microdilution in CAMHB 24 h; format: cell-based; conditions: CF2A-L; Human (CF lungs)
S. aureus CF4B-L = assay: MIC, microdilution in CAMHB 24 h; format: cell-based, Staphylococcus aureus; conditions: CF4B-L; Human (CF lungs)
S. aureus CF6B-L = assay: MIC, microdilution in CAMHB 24 h; format: cell-based, Staphylococcus aureus; conditions: CF6B-L; Human (CF lungs)
S. aureus CF7A-L = assay: MIC, microdilution in CAMHB 24 h; format: cell-based, Staphylococcus aureus; conditions: CF7A-L; Human (CF lungs); MRSA
S. aureus CF8E-L = assay: MIC, microdilution in CAMHB 24 h; format: cell-based, Staphylococcus aureus; conditions: CF8E-L; Human (CF lungs)
S. aureus CF9A-L = assay: MIC, microdilution in CAMHB 24 h; format: cell-based, Staphylococcus aureus; conditions: CF9A-L; Human (CF lungs); MRSA
S. aureus CF35A-L = assay: MIC, microdilution in CAMHB 24 h; format: cell-based, Staphylococcus aureus; conditions: CF35A-L; Human (CF lungs); MRSA
S. aureus CF07-L = assay: MIC, microdilution in CAMHB 24 h; format: cell-based, Staphylococcus aureus; conditions: CF07-L; Human (CF lungs)

Row | SMILES | MIC (S. aureus ATCC 29213 [6]) | MIC −TO (S. aureus ATCC 29213 [6]) | MIC +TO (S. aureus ATCC 29213 [6]) | Fold (−TO/+TO) (S. aureus ATCC 29213 [6]) | MIC (S. aureus 8325-4) | MIC (S. aureus Newbould) | MIC (S. aureus SHY97-3906) | MIC (S. aureus ATCC 43300) | MIC (S. aureus ATCC BAA-41) | MIC (S. aureus N315) | MIC (S. aureus MA078038) | MIC (S. aureus Newman) | MIC (S. aureus MRSA COL) | MIC (S. aureus Mu50) | MIC (S. aureus Sa220c) | MIC (S. aureus Sa228c) | MIC (S. aureus CF1A-L) | MIC (S. aureus CF2A-L) | MIC (S. aureus CF4B-L) | MIC (S. aureus CF6B-L) | also measured
1 | Cc1onc(-c2ccccc2)c1C(=O)N[C@@H]1C(=O)N2[C@@H]1SC(C)(C)[C@@H]2C(=O)O [Oxacillin, oxacillin] | 0.25 µg/mL (≈ 0.623 µM) | 0.25 µg/mL (≈ 0.623 µM) | 0.25 µg/mL | 1 fold | 0.12 µg/mL (≈ 0.299 µM) | 0.12 µg/mL (≈ 0.299 µM) | 0.12 to 0.25 µg/mL | 16-32 (R) μg/ml | >64 (R) μg/ml | 8 (R) μg/ml | 64 (R) μg/ml | 0.5 to 1 µg/mL | >64 (R) μg/ml | >64 (R) μg/ml | 16-32 (R) μg/ml | >64 (R) μg/ml | 0.25 to 0.5 µg/mL | 0.25 µg/mL (≈ 0.623 µM) | 0.5 µg/mL (≈ 1.25 µM) | 0.25 to 1 µg/mL | MIC (S. aureus ATCC 29213 [1]; ATCC 29213 + HQNO at 20 μg/ml): 0.12 µg/mL; MIC (S. aureus ATCC 29213 [1]; ATCC 29213, without HQNO): 0.12 to 0.25 µg/mL; MIC (S. aureus ATCC 29213 [1]; ATCC 29213 in BHI): 0.12 to 0.25 µg/mL; MIC (S. aureus ATCC 29213 [1]; ATCC 29213 in MHBCA): 0.12 to 0.5 µg/mL; MIC [2]: 0.06 to 0.12 µg/mL; MIC [3]: 0.03 to 0.06 µg/mL; MIC ([4]; CF07-L + HQNO at 20 μg/ml): 0.06 to 0.12 µg/mL; MIC ([4]; CF07-L, normal strain): 0.06 to 0.12 µg/mL; MIC ([4]; CF07-L, without HQNO): 0.06 to 0.12 µg/mL; MIC [5]: 0.25 µg/mL (≈ 0.623 µM); MIC (S. aureus CF7A-L): >64 (R) μg/ml; MIC (S. aureus CF8E-L): 0.125 µg/mL (≈ 0.311 µM); MIC (S. aureus CF9A-L): >64 (R) μg/ml; MIC (S. aureus CF35A-L): >64 (R) μg/ml; MIC (S. aureus CF07-L): 0.12 to 0.25 µg/mL
2 | CN(C)[C@@H]1C(=O)C(C(N)=O)=C(O)[C@@]2(O)C(=O)C3=C(O)c4c(O)cccc4[C@@](C)(O)[C@H]3C[C@@H]12 [Tetracycline, tetracycline] | 0.25 to 0.5 µg/mL | 0.25 to 0.5 µg/mL | 0.25 to 0.5 µg/mL | 1 fold | 0.25 µg/mL (≈ 0.563 µM) | 0.25 to 0.5 µg/mL | 0.25 to 0.5 µg/mL | 0.5 µg/mL (≈ 1.13 µM) | 0.5 µg/mL (≈ 1.13 µM) | 0.5 µg/mL (≈ 1.13 µM) | 0.5 µg/mL (≈ 1.13 µM) | 0.25 to 0.5 µg/mL | 1 to 2 µg/mL | >16 (R) μg/ml | 0.5 µg/mL (≈ 1.13 µM) | >16 (R) μg/ml | 0.25 µg/mL (≈ 0.563 µM) | 2 µg/mL (≈ 4.5 µM) | 0.25 µg/mL (≈ 0.563 µM) | 0.25 µg/mL (≈ 0.563 µM) | MIC (S. aureus CF7A-L): 0.25 to 0.5 µg/mL; MIC (S. aureus CF8E-L): 0.25 to 0.5 µg/mL; MIC (S. aureus CF9A-L): 0.25 to 0.5 µg/mL; MIC (S. aureus CF35A-L): 0.5 µg/mL (≈ 1.13 µM); MIC (S. aureus CF07-L): 0.5 µg/mL (≈ 1.13 µM)
